This is an account of results in EP3613735A1, “NOVEL SIRT 1 ACTIVATOR AND MEDICINAL USE THEREOF” (Pusan National University Industry - University Cooperation …, priority 2017, dated 2018).

One experiment addresses T1, SIRT 1 (Homo sapiens, UniProt Q96EB6).
T1 sequence (Q96EB6 1-747): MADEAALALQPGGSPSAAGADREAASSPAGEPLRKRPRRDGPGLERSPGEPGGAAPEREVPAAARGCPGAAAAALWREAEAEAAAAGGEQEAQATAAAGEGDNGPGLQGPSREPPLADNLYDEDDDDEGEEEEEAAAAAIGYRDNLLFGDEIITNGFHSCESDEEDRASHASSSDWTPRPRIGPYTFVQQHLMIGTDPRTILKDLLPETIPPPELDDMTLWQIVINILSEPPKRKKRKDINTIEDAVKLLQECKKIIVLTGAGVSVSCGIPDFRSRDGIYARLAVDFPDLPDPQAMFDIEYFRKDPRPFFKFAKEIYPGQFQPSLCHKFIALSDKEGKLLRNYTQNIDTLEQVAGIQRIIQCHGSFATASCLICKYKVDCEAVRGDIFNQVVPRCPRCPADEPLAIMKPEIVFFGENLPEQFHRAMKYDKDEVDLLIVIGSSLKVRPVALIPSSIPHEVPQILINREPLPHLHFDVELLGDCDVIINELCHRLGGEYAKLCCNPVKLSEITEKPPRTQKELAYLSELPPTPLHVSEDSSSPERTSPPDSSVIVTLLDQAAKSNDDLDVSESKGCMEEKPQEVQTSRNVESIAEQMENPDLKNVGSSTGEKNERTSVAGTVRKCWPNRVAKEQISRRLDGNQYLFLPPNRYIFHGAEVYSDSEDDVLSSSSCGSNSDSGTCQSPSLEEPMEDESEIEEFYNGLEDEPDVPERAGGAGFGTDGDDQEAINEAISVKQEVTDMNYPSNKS
Description: SIRT 1 fluorometric drug discovery kit (AK-555, Biomol), deacetylation of Fluor de Lys-SIRT 1 substrate. The format is biochemical. Particulars: 100 µM candidate vs 100 µM resveratrol positive control; 25 µM Fluor de Lys-Sirt1, 25 µM NAD+. The protocol: SIRT 1 activity of candidate SIRT 1 activator compounds synthesized based on the benzo[d]furan backbone were measured using a SIRT 1 fluorometric drug discovery kit (AK-555, Biomol). Briefly, as the substrate for analysis, 0.2 U/L of Fluor de Lys-SIRT 1 substrate developer mixture is used, which is amino acid 379382 of human […] AC), and SIRT 1 incubated with cosubstrate NAD^+. The degree of initial deacetylation of SIRT 1 for 100 μM candidate was measured using 100 μM resveratrol as a positive control in 25 μM Fluor de Lys-Sirt1 and 25 μM NAD^+ environments. The reaction was stopped using Fluor de LysTM Developer II/2 mM nicotinamide, followed by measuring fluorescence (Excitation: 360 nm, Emission: 460 nm). The SIRT 1 activity for candidate SIRT 1 activator compounds synthesized based on the benzo[d]oxazole backbone were measured using SIRT 1 fluorometric drug discovery kit (AK-555, Biomol). Briefly, 0.2 U/L of Fluor de Lys-SIRT 1 substrate developer mixture liquid was used as the analytical substrate, meaning amino acid 379382 of human […] […] The initial degree of deacetylation of SIRT 1 for 100 μM candidate was measured using 100 μM resveratrol as a positive control in 25 μM Fluor de Lys-Sirt1 and 25 μM NAD+. The reaction was stopped using Fluor de LysTM Developer II/2 mM nicotinamide, followed by fluorescence (Excitation: 360 nm, Emission: 460 nm).

The next experiment deals with db/db mice. Kind of experiment: Dietary intake and weight in obese animal model. The format is in vivo, mouse. To be noted: oral 5 mg/kg daily for 4 weeks, compared to db/db mice group. On the procedure:
The metabolic disease control ability of Compound 32u was analyzed using db/db mice lacking an appetite-regulating hormone leptin receptor as an obese animal model. Compound 32u was orally administered to db/db mice (9 weeks old) at a concentration of 5 mg/kg daily for 4 weeks. The metabolic disease control ability of Compound 70c was analyzed using db/db mice lacking an appetite-regulating hormone leptin receptor as an obese animal model. Compound 70c was orally administered to db/db mice (9 weeks old) at a concentration of 5 mg/kg daily for 4 weeks.

Another experiment has as its system p-IRE. Description: Liver endoplasmic reticulum stress marker, Western blot. The experiment is classed as in vivo, mouse. To be noted: db/db mice, oral treatment. On the procedure: The cause of non-alcoholic liver disease (NAFLD) is unclear, but recent studies report that endoplasmic reticulum (ER) stress can be involved in fatty liver development and progression to non-alcoholic fatty hepatitis. Thus, in order to analyze the effect of Compound 32u on endoplasmic reticulum stress-related marker (p-IRE) was identified by Western blot. Briefly, about 50 mg of liver was quantified, homogenated and lysed to extract proteins. After quantifying the extracted protein and loading the same amount thereof in the polyacrylamide gel, the protein was separated according to molecular weight through SDS-PAGE (sodium dodecyl sulfate-polyacrylamide gel electrophoresis). Proteins separated according to molecular weight were transferred to a membrane by applying an electric field, and the desired protein was detected using a specific antibody. After reacting the primary antibody that specifically binds to the protein to be detected for at least 12 hours, the secondary antibody that specifically binds to the primary antibody is reacted for 1 hour, and the expression of the protein can be analyzed by treating the developer liquid containing the substrate HRP (horse radish peroxidase) present in the secondary antibody. […] Briefly, about 50 mg of liver was quantified, homogenated and lysed to extract proteins. […]
For orientation: In western blotting, separated proteins are transferred to a membrane and probed.

In another experiment the test system is skin fibroblasts. Kind of experiment: β-galactosidase staining of UVB-induced cell aging. To be noted: UVB of 12 mJ/cm^2; pretreated at 1 µM for 24 hours. The experiment is classed as cell-based. On the procedure: β-galactosidase is used to induce cellular aging of fibroblasts, which are the main cells of the epidermal layer of skin, by using UVB, the most important environmental factor in skin aging, as the most common marker for cell aging and β-galactosidase staining was performed to analyze the cell aging protection of Compound 32u. […]

The structures appear in SMILES notation.

For the molecule `Cl.O=C(Nc1ccccc1-c1cc2ccc(CN3CCNCC3)cc2o1)c1ccc2ccccc2c1` [Compound 32u, N-(2-(6-(Piperazin-1-ylmethyl)benzofuran-2-yl)phenyl)-2-naphthamide hydrochloride], the “SIRT 1 activity” value at SIRT 1 is “higher SIRT 1 activity effect than resveratrol”. In the experiment with db/db mice, the dietary intake entry is “no difference” and the weight result was “no difference”. Besides, the “protein expression of endoplasmic reticulum stress-related markers (p-IRE)” value with p-IRE is “significantly reduced”. For the same molecule, the β-galactosidase staining entry in the experiment with skin fibroblasts was “reduced”.

As for `O=C(Nc1ccccc1-c1nc2cc(CN3CCN(C4CCCCC4)CC3)ccc2o1)c1ccc2ccccc2c1` [Compound 70c, N-(2-(5-((4-Cyclohexylpiperazin-1-yl)methyl)benzo[d]oxazol-2-yl)phenyl)-2-naphthamide], the “SIRT 1 activity” value at SIRT 1 is “higher SIRT 1 activity effect than resveratrol”. In addition, in the experiment on db/db mice, the dietary intake entry is “no difference” and the weight entry is “no difference”. The “protein expression of endoplasmic reticulum stress-related markers (p-IRE)” value with p-IRE is reported as “significantly reduced”. In addition, the β-galactosidase staining result in the experiment with skin fibroblasts is given as “reduced”.
